Activity calls are given as the source filed them. The calls are words filed in the database; no cut-off is given here.
Key:
A549 [1] = assay: Induction of apoptosis in human A549 cells assessed as late apoptotic cells at 20 uM after 24 hrs by Annexn V-FITC/propidium iodide staining based flow cytometry (reference value: 3%); assay type: functional
A549 [2] = assay: Induction of apoptosis in human A549 cells assessed as necrotic cells at 20 uM after 24 hrs by Annexn V-FITC/propidium iodide staining based flow cytometry (reference value: 10%); assay type: functional
A549 [3] = assay: Anticlonogenic activity against human A549 cells at 20 uM after 7 days by crystal violet staining based assay; assay type: functional, cell-based
NCI-H460 = assay: Anticlonogenic activity against human NCI-H460 cells at 20 uM after 7 days by crystal violet staining based assay; assay type: functional, cell-based
NCI-H1299 = assay: Anticlonogenic activity against human NCI-H1299 cells at 20 uM after 7 days by crystal violet staining based assay; assay type: functional, cell-based
A549 [4] = assay: Growth inhibition of human A549 cells assessed as cell viability at 5 uM after 24 hrs by CCK8 assay relative to control; assay type: functional; conditions: A549, 24 h, read-out: Activity
A549 [5] = assay: Growth inhibition of human A549 cells assessed as cell viability at 10 uM after 24 hrs by CCK8 assay relative to control; assay type: functional; conditions: A549, 24 h, read-out: Activity
A549 [6] = assay: Growth inhibition of human A549 cells assessed as cell viability at 20 uM after 24 hrs by CCK8 assay relative to control; assay type: functional; conditions: A549, 24 h, read-out: Activity
A549 [7] = assay: Cell cycle arrest in human A549 cells assessed as accumulation at sub-G1 phase at 20 uM after 24 hrs by propidium iodide staining based flow cytometry (reference value: 2 to 2.3%); assay type: functional
A549 [8] = assay: Cell cycle arrest in human A549 cells assessed as accumulation at G1 phase at 20 uM after 24 hrs by propidium iodide staining based flow cytometry (reference value: 57%); assay type: functional
A549 [9] = assay: Cell cycle arrest in human A549 cells assessed as accumulation at S phase at 20 uM after 24 hrs by propidium iodide staining based flow cytometry (reference value: 25.6 to 26%); assay type: functional
A549 [10] = assay: Cell cycle arrest in human A549 cells assessed as accumulation at G2/M phase at 20 uM after 24 hrs by propidium iodide staining based flow cytometry (reference value: 14.8 to 15%); assay type: functional
A549 [11] = assay: Induction of apoptosis in human A549 cells assessed as live cells at 20 uM after 24 hrs by Annexn V-FITC/propidium iodide staining based flow cytometry (reference value: 83%); assay type: functional
A549 [12] = assay: Induction of apoptosis in human A549 cells assessed as early apoptotic cells at 20 uM after 24 hrs by Annexn V-FITC/propidium iodide staining based flow cytometry (reference value: 5%); assay type: functional
A549 [13] = assay: Induction of apoptosis in human A549 cells assessed as increase in cleaved caspase-9 expression at 20 uM after 12 hrs by immunoblot analysis; assay type: functional, cell-based
A549 [14] = assay: Induction of apoptosis in human A549 cells assessed as increase in cleaved caspase-7 expression at 20 uM after 12 hrs by immunoblot analysis; assay type: functional, cell-based
A549 [15] = assay: Induction of apoptosis in human A549 cells assessed as increase in cleaved PARP expression at 20 uM after 12 hrs by immunoblot analysis; assay type: functional, cell-based
A549 [16] = assay: Induction of apoptosis in human A549 cells assessed as increase in cleaved caspase-7 expression at 20 uM after 18 hrs by Alexa Fluor-488/Hoechst 33258 staining based fluorescence microscopic method; assay type: functional, cell-based
A549 [17] = assay: Induction of apoptosis in human A549 cells assessed as disruption of microtubule organization at 20 uM after 18 hrs by Alexa Fluor-488/Hoechst 33258 staining based fluorescence microscopic method; assay type: functional, cell-based
A549 [18] = assay: Induction of apoptosis in human A549 cells assessed as nuclear condensation and fragmentation at 20 uM after 18 hrs by Alexa Fluor-488/Hoechst 33258 staining based fluorescence microscopic method; assay type: functional, cell-based
A549 [19] = assay: Induction of apoptosis in human A549 cells assessed as increase in cleaved caspase-7 expression at 20 uM pre-treated with pan-caspase inhibitor zVAD-FMK fopr 30 mins before compound incubation for 12 hrs by immunoblot analysis; assay type: functional, cell-based
A549 [20] = assay: Induction of apoptosis in human A549 cells assessed as increase in cleaved PARP expression at 20 uM pre-treated with pan-caspase inhibitor zVAD-FMK fopr 30 mins before compound incubation for 12 hrs by immunoblot analysis; assay type: functional, cell-based
MDA-MB-231 = assay: Induction of apoptosis in human MDA-MB-231 cells assessed as increase in cleaved PARP expression at 20 uM after 12 hrs by immunoblot analysis; assay type: functional, cell-based
MCF-12A = assay: Induction of apoptosis in human MCF12A cells assessed as increase in cleaved PARP expression at 20 uM after 12 hrs by immunoblot analysis; assay type: cell-based
[21] = biological target: T1, Eukaryotic translation initiation factor 2-alpha kinase 3 (Homo sapiens) (UniProt Q9NZJ5); assay: Induction of ER stress-activated unfolded protein response pathway in human A549 cells assessed as increase in PERK phosphorylation at Thr981 residue at 20 uM up to 6 hrs by immunoblot analysis; assay type: cell-based
T1 sequence (whole entry): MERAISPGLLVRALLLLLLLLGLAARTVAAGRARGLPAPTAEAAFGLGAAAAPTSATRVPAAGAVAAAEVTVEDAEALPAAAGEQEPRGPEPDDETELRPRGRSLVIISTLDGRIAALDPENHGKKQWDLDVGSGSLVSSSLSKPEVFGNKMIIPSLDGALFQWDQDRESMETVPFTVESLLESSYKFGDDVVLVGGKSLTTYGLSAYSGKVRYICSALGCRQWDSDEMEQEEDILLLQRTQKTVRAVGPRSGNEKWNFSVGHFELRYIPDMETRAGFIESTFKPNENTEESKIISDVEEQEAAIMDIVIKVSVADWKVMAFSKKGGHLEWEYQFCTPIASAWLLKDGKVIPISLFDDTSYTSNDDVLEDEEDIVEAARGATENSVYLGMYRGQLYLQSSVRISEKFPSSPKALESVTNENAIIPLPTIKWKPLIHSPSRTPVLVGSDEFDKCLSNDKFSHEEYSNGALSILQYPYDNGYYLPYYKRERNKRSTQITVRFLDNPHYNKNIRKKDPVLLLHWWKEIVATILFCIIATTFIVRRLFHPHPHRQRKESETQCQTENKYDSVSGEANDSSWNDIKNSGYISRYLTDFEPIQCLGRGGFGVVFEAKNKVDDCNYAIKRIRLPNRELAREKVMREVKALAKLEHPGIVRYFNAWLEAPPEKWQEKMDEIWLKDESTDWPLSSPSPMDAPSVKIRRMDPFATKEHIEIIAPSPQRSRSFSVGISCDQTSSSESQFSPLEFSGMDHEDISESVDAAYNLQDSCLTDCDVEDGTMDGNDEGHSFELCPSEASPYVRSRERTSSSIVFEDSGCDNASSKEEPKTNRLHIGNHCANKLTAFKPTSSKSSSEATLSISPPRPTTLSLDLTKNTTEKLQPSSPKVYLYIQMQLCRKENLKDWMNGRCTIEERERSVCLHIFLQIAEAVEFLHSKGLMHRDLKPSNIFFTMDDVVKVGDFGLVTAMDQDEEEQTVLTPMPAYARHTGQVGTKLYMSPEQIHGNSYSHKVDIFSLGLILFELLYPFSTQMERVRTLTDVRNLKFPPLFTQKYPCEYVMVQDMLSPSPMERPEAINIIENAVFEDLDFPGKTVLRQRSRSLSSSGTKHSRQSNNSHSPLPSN

A549 [22] = assay: Induction of ER stress-activated unfolded protein response pathway in human A549 cells assessed as accumulation of GRP78 protein level at 20 uM after 12 hrs by immunoblot analysis; assay type: functional, cell-based
A549 [23] = assay: Induction of ER stress-activated unfolded protein response pathway in human A549 cells assessed as accumulation of IRE1alpha protein level at 20 uM after 12 hrs by immunoblot analysis; assay type: functional, cell-based
A549 [24] = assay: Induction of ER stress-activated unfolded protein response pathway in human A549 cells assessed as increase in IRE1alpha-mediated splicing of XBP1 mRNA by measuring increase in 540-base pair fragments at 20 uM within 3 hrs by RT-PCR analysis; assay type: functional, cell-based
A549 [25] = assay: Induction of ER stress-activated unfolded protein response pathway in human A549 cells assessed as increase in IRE1alpha-mediated splicing of XBP1 by measuring increase in XBP1 (56 kDa) level at 20 uM after 6 to 12 hrs by immunoblot analysis; assay type: functional, cell-based
A549 [26] = assay: Induction of ER stress-activated unfolded protein response pathway in human A549 cells assessed as increase in ATF4 expression at 20 uM after 6 hrs by immunoblot analysis; assay type: functional, cell-based
A549 [27] = assay: Induction of ER stress-activated unfolded protein response pathway in human A549 cells assessed as increase in CHOP expression at 20 uM after 6 to 12 hrs by immunoblot analysis; assay type: functional, cell-based
A549 [28] = assay: Induction of ER stress-activated unfolded protein response pathway in human A549 cells harboring pFA-CHOP-GAL4/p-GAL4-DBD-Luc assessed as increase in CHOP trans-acting activity after 12 hrs by luciferase reporter gene assay; assay type: functional, cell-based
A549 [29] = assay: Induction of ER stress-activated unfolded protein response pathway in human A549 cells assessed as increase in Bim expression at 20 uM after 12 hrs by immunoblot analysis; assay type: functional, cell-based
A549 [30] = assay: Induction of ER stress-activated unfolded protein response pathway-mediated apoptosis in human A549 cells assessed as increase in cleaved caspase-7 expression at 20 uM pre-treated with stress inhibitor 4-PBA before compound addition by immunoblot analysis; assay type: functional, cell-based
A549 [31] = assay: Induction of ER stress-activated unfolded protein response pathway-mediated apoptosis in human A549 cells assessed as increase in cleaved PARP expression at 20 uM pre-treated with stress inhibitor 4-PBA before compound addition by immunoblot analysis; assay type: functional, cell-based
A549 [32] = assay: Induction of ER stress-activated unfolded protein response pathway in human A549 cells assessed as increase in IRE1alpha-mediated splicing of XBP1 mRNA by measuring increase in 279-/261-base pair fragments at 20 uM within 3 hrs by RT-PCR analysis; assay type: functional, cell-based
A549 [33] = assay: Induction of ER stress-activated unfolded protein response pathway in human A549 cells assessed as increase in IRE1alpha-mediated splicing of XBP1 mRNA by measuring increase in 540-base pair fragments at 20 uM after 12 hrs by RT-PCR analysis; assay type: functional, cell-based
A549 [34] = assay: Induction of ER stress-activated unfolded protein response pathway in human A549 cells assessed as increase in IRE1alpha-mediated splicing of XBP1 mRNA by measuring increase in 540-base pair fragments at 20 uM after 24 hrs by RT-PCR analysis; assay type: functional, cell-based

`COc1cc(/C=C/C(=O)c2cc(OC)ccc2O)cc(OC)c1` was tested, and the Activity (A549 [1]) was 16%, the Activity (A549 [2]) was 9% and the Activity (A549 [3]) was “Active”. For the same molecule, the Activity (NCI-H460) was “Active”, the Activity (NCI-H1299) was “Active” and the viability at 5 µM (A549 [4]) was 90.1%. The viability at 10 µM (A549 [5]) was 83.9%, the viability at 20 µM (A549 [6]) was 50.8% and the Activity (A549 [7]) was 29.6 - 30%. For the same molecule, the Activity (A549 [8]) was 29.8 - 30%, the Activity (A549 [9]) was 26 - 26.5% and the Activity (A549 [10]) was 14 - 14.1%. The Activity (A549 [11]) was 56%, the Activity (A549 [12]) was 18% and the Activity (A549 [13]) was “Active”. The Activity (A549 [14]) was “Active”, the Activity (A549 [15]) was “Active” and the Activity (A549 [16]) was “Active”. For the same molecule, the Activity (A549 [17]) was “Active”, the Activity (A549 [18]) was “Active” and the Activity (A549 [19]) was “inactive”. For the same molecule, the Activity (A549 [20]) was “inactive”, the Activity (MDA-MB-231) was “Active” and the Activity (MCF-12A) was “Non-Toxic”. For the same molecule, the Activity [21] was “Active”, the Activity (A549 [22]) was “Active” and the Activity (A549 [23]) was “Active”. For the same molecule, the Activity (A549 [24]) was “Active”, the Activity (A549 [25]) was “Active” and the Activity (A549 [26]) was “Active”. For the same molecule, the Activity (A549 [27]) was “Active”, the Activity (A549 [28]) was “Dose-dependent effect” and the Activity (A549 [29]) was “Active”. For the same molecule, the Activity (A549 [30]) was “Active”, the Activity (A549 [31]) was “Active” and the Activity (A549 [32]) was “Active”. The Activity (A549 [33]) was “Active” and the Activity (A549 [34]) was “inactive”.

— ChEMBL document CHEMBL4229450, “The synthetic chalcone derivative 2-hydroxy-3',5,5'-trimethoxychalcone induces unfolded protein response-mediated apoptosis in A549 lung cancer cells” (Bioorg Med Chem Lett, 2018)
